Earlier results in patent US11583515B2, “Composition and method for rapidly inducing an endogenous ketosis” (priority 2015, dated 2023).

How the values were obtained:
[1] = tested on: Dawley rats
[2] = in vivo
[3] = tested on: muscle cells; details: with and without the presence of insulin or exercise
[4] = racemic mixture of R and S enantiomers, taken orally
[5] = tested on: insulin signaling cascade; details: 600, 1200, and 1800 mg daily for four weeks; individuals with impaired insulin signaling cascades

beta-hydroxybutyrate salts
effect on triglycerides or total cholesterol ([1]; after four weeks of repeated daily ingestion): no effect
effect on blood glucose numbers ([1]; orally supplemented, 28 days): improved
effect to promote weight loss ([1]; orally supplemented, 28 days): no effect
blood level of beta-hydroxybutyrate, acetoacetate, and acetone ([1]; supplementation): increases

[Cr] [Chromium]
doses used without any reported adverse effects (chromium containing supplements): up to 1000 mcg
absorption, share of an ingested dose [2]: 1-2%
complete plasma clearance half-life [2]: 8 to 12 h
rate of cellular glucose uptake [3]: several times normal

O=C(O)CCCCC1CCSS1 (racemic) [Alpha Lipoic acid, 1,2-dithiolane-3-pentanoic acid]
effect on mother or child (2014 study, treating peripheral neuropathy during pregnancy): no harmful effect
safety of supplementation (animal or human studies, various ranges of intake, large doses or extended use): safe with no widespread serious or life-threatening reactions reported
bioavailability after absorption [4]: ~30%
complete plasma clearance [4]: approximately three hours
half-life [4]: thirty minutes to one and one half hours
improvement of effectiveness of the signaling cascade on glucose uptake and utilization [5]: 25%
